The text below walks through data of ChEMBL document CHEMBL1136076, “A new class of histamine H(3)-receptor antagonists: synthesis and structure-activity relationships of 7,8,9,10-tetrahydro-6H-cyclohepta[b]quinolines” (Bioorg Med Chem Lett, 2003).

pKi: −log10 of the molar value. Bounds are passed on as bounds.

In experiment [1] the target is T1, Histamine H3 receptor (Homo sapiens, UniProt Q9Y5N1). The experiment in a line: Binding affinity towards cloned human H3L receptor.
The target in experiment [2] is Histamine H3 receptor (Rattus norvegicus, UniProt Q9QYN8). In words: Binding affinity towards rat cortical Histamine H3 receptor.
Chain of Histamine H3 receptor (Rattus norvegicus, UniProt Q9QYN8) (Q9QYN8 whole entry): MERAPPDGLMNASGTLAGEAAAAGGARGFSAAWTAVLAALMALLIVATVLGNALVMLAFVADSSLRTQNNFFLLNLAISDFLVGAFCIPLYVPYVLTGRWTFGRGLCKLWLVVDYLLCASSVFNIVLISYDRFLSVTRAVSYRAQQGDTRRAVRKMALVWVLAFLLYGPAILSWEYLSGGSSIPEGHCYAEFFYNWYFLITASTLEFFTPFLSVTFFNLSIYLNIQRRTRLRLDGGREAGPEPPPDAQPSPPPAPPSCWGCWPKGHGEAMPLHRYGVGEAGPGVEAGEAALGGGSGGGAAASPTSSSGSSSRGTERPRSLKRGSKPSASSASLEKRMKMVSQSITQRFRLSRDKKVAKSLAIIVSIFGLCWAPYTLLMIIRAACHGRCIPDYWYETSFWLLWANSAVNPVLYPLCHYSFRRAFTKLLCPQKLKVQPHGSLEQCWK
Another experiment addresses Histamine H1 receptor (Homo sapiens, UniProt P35367). In words: Compound was tested for its binding affinity towards human H1 receptor.
Experiment [3] concerns the target T1, Histamine H3 receptor. In words: Compound was tested for its binding affinity towards human H3L receptor.
The target in the next experiment is Histamine H2 receptor (Homo sapiens, UniProt P25021). The experiment in a line: Compound was tested for its binding affinity towards human H2 receptor.
Chain of Histamine H2 receptor (P25021 whole entry): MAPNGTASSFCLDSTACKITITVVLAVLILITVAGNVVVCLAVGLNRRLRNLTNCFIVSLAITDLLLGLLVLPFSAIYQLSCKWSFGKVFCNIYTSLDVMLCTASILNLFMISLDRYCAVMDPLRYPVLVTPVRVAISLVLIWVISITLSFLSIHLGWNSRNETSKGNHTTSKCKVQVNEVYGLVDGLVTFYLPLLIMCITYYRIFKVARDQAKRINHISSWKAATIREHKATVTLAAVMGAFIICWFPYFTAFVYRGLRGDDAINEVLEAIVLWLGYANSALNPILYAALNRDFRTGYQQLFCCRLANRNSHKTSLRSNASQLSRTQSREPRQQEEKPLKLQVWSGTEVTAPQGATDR

T1 sequence (Q9Y5N1 whole entry): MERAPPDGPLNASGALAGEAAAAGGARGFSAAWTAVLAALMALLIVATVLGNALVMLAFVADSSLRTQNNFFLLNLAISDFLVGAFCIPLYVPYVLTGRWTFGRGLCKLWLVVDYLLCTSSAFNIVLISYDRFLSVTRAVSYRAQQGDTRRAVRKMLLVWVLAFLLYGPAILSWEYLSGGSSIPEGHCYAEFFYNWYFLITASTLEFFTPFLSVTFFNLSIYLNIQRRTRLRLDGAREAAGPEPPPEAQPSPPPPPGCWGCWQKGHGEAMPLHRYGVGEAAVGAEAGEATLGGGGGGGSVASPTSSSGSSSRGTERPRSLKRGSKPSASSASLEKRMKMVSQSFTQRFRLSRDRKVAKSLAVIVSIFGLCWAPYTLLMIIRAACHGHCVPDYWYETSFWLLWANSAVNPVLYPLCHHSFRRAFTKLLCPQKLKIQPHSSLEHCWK
Chain of Histamine H1 receptor (P35367 whole entry): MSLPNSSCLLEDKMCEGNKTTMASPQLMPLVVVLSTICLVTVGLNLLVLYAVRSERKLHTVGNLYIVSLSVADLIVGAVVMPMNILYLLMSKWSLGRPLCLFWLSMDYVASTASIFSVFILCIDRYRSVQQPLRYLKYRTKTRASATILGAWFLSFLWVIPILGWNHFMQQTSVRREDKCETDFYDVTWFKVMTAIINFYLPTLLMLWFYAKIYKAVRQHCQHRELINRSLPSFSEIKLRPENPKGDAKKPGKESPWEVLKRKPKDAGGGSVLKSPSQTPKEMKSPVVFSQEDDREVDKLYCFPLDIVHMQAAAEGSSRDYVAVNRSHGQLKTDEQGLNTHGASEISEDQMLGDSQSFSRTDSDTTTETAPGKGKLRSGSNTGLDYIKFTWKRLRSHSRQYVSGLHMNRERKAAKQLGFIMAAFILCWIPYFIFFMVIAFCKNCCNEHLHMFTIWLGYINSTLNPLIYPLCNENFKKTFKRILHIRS

As for `OC[C@@H]1CCN(CCC#Cc2c3c(nc4ccccc24)CCCCC3)C1`, the negative logarithm of the Ki (pKi) (commonly −log10 of the Ki, conventionally taken in molar units) was 6.60 on Histamine H3 receptor [1] and 6.21 at Histamine H3 receptor [2].
Take `CC(C)(C)OC(=O)N[C@H]1[C@@H]2CN(CCCNc3c4c(nc5ccccc35)CCCCC4)C[C@@H]21`: the negative logarithm of the Ki (pKi) at Histamine H3 receptor [1] is 7.33; on Histamine H3 receptor [2], 7.29.
Consider `c1ccc2c(NCCCn3ccnc3)c3c(nc2c1)CCCCC3`, for which the negative logarithm of the Ki (pKi) on Histamine H3 receptor [1] and on Histamine H3 receptor [2] was less than 6.00 throughout.
With `C(#Cc1c2c(nc3ccccc13)CCCCCC2)CCN1CCCCC1`, the negative logarithm of the Ki (pKi) on Histamine H3 receptor [1] was 6.80; at Histamine H3 receptor [2] it was 6.19.
On the same counts, the results for `N[C@@H]1[C@H]2CN(CCCNc3c4c(nc5ccccc35)CCCCC4)C[C@@H]12` are 7.35 and 7.13.
As for `CN(C)CCC#Cc1c2c(nc3ccccc13)CCCCC2`, the negative logarithm of the Ki (pKi) at Histamine H3 receptor [1] is 6.41; on Histamine H3 receptor [2], 6.16.
Turning to `CN1CCN(CCCNc2c3c(nc4ccccc24)CCCCC3)CC1`, the figures for the negative logarithm of the Ki (pKi) at Histamine H3 receptor [1] and on Histamine H3 receptor [2] were 7.29 and 7.01, respectively.
On the same counts, the results for `C(=C/c1c2c(nc3ccccc13)CCCCC2)/CCN1CCCCC1` are 7.06 and 6.56.
For the compound `CN1CCN(CCC#Cc2c3c(nc4ccccc24)CCCCC3)CC1`, the negative logarithm of the Ki (pKi) was 6.14 at Histamine H3 receptor [1] and less than 6.00 on Histamine H3 receptor [2].
With `CN(C)CCNc1c2c(nc3ccccc13)CCCCC2`, the negative-log Ki (pKi) is 7.32 at Histamine H3 receptor [1] and 6.83 on Histamine H3 receptor [2].
Take `OC[C@H]1CCN(CCC#Cc2c3c(nc4ccccc24)CCCCC3)C1`: the values for the negative logarithm of the Ki (pKi) at Histamine H3 receptor [1] and at Histamine H3 receptor [2] were 6.02 and less than 6.00, respectively.
Turning to `CC(C)(C)OC(=O)N1CCN(c2c3c(nc4ccccc24)CCCCC3)CC1`, the negative logarithm of the Ki (pKi) at Histamine H3 receptor [1] and on Histamine H3 receptor [2] was less than 6.00 throughout.
With `CN1CCCC1CCNc1c2c(nc3ccccc13)CCCCC2` (stereo not drawn), the negative-log Ki (pKi) at Histamine H1 receptor is 5.39; on Histamine H3 receptor [1] it was 8.18; on Histamine H3 receptor [3], 8.18; at Histamine H3 receptor [2] it was 7.74; on Histamine H2 receptor it was 5.76.
`c1ccc2c(NCCCN3CCCC3)c3c(nc2c1)CCCCC3`: the negative logarithm of the Ki (pKi) at Histamine H1 receptor was 4.80; at Histamine H3 receptor [1] it was 8.76; at Histamine H3 receptor [3] it was 8.18; on Histamine H3 receptor [2], 8.60; at Histamine H2 receptor, 5.42.
With `C(#Cc1c2c(nc3ccccc13)CCCCC2)CCN1CCOCC1`, the negative-log Ki (pKi) on Histamine H3 receptor [1] and at Histamine H3 receptor [2] was less than 6.00 each time.
`CN(C)CCCNc1c2c(nc3c1CCCC3)CCCCC2` had a pKi at Histamine H3 receptor [2] of 6.45.
For `CN(C)CCCNc1c2c(nc3ccccc13)CCCCC2`, the pKi was 5.11 on Histamine H1 receptor; 8.01 on Histamine H3 receptor [1]; 8.01 at Histamine H3 receptor [3]; 7.66 on Histamine H3 receptor [2]; 4.99 on Histamine H2 receptor.
As for `CN(C)CCCNc1c2c(nc3ccccc13)CCSC2`, the pKi on Histamine H3 receptor [1] is 7.27; on Histamine H3 receptor [2], 7.23.
Regarding `C(#Cc1c2c(nc3ccccc13)CCCCC2)CCN1CCCC1`, the pKi is 6.67 at Histamine H3 receptor [1] and 6.19 at Histamine H3 receptor [2].
In the case of `CC(=O)N(CCCN(C)C)c1c2c(nc3ccccc13)CCCCC2`, the pKi was 6.00 on Histamine H3 receptor [1] and less than 6.00 on Histamine H3 receptor [2].
For `CN(C)CCCCNc1c2c(nc3ccccc13)CCCCC2`, the pKi was 7.36 on Histamine H3 receptor [1] and 7.41 at Histamine H3 receptor [2].
As for `c1ccc2c(N3CCCNCC3)c3c(nc2c1)CCCCC3`, the pKi on Histamine H3 receptor [1] and on Histamine H3 receptor [2] was less than 6.00 throughout.
Consider `c1ccc2c(NCCCN3CCOCC3)c3c(nc2c1)CCCCC3`, for which the results for the pKi at Histamine H3 receptor [1] and at Histamine H3 receptor [2] were 6.12 and 6.40, respectively.
Consider `CC(C)(C)OC(=O)N1CCCN(c2c3c(nc4ccccc24)CCCCC3)CC1`, for which the negative-log Ki (pKi) on Histamine H3 receptor [1] and on Histamine H3 receptor [2] was less than 6.00 in each case.
For `C(#Cc1c2c(nc3ccccc13)CCCCC2)CCN1CCCCCC1`, the pKi on Histamine H3 receptor [1] is 6.36; at Histamine H3 receptor [2], less than 6.00.
Turning to `C(#Cc1c2c(nc3ccccc13)CCCCC2)CCN1CCCCC1`, the negative logarithm of the Ki (pKi) at Histamine H1 receptor was 6.00; on Histamine H3 receptor [1], 7.10; on Histamine H3 receptor [3], 7.10; at Histamine H3 receptor [2] it was 6.39; at Histamine H2 receptor, 5.49.
